# Source: patent US11896589B2, “Diazinyl amino acridines and medical uses thereof” (MyCural Therapeutics AB, priority 2018, dated 2024)
# Counter-ions that a name gives are not always drawn.
# Assays:
# MYCbHLHZip = biological target: T1, MYCbHLHZip (Homo sapiens, UniProt P01106); test: Assay 2B MYC SPR assay; type: binding; conditions: equilibrium binding experiments
# T1 construct: An amino coupling procedure was used to immobilize MYCbHLHZip protein on a CM5 sensor chip
# Method: FIG. 3: A) SPR assay to determine affinity of Example 1 to MYC. MYC bHLHZip protein was immobilized by aminocoupling on a CM5 sensor chip. Example 1 was injected at various concentrations in a kinetic experiment. The reference surface was subtracted from the analyte surface to generate a sensorgram. […] B) Four MYC equilibrium binding experiments with Example 1 summarized in an equilibrium binding plot. […] Equilibrium binding experiments of MYC with Example 2 and control compound (non-binder) were plotted as well. Assay 2B. MYC SPR Assay To analyze the direct binding of compounds to MYC, the direct binding of compounds to MYC was detected by surface plasmon resonance (SPR) as described above (Biological example 1—Assay 1B). An amino coupling procedure was used to immobilize MYCbHLHZip protein on a CM5 sensor chip (GE Healthcare) resulting in immobilization levels of approximately 800 respectively 1000 RU. The compounds were injected at different concentrations, one at a time, over the surface for 50-80 seconds with a flow rate of 30 μl/min. Afterwards the compounds were allowed to dissociate for 240 seconds in running buffer (137 mM NaCl, 2.7 mM KCl, 10 mM Na2HPO4, 1.8 mM KH2PO4, 0.005% Tween-20, 1% DMSO, pH 7.4). To remove all remaining analyte the surface was regenerated with 2M Urea for 30 seconds and thereafter 1M NaCl, 2.7 mM KCl, 10 mM Na2HPO4, 1.8 mM KH2PO4, 1% DMSO, pH 7.4 for 30 seconds. Sensorgrams were generated by subtraction of the reference (blank immobilized) surface. Binding responses were related to respective compounds' Rmax. Rmax is the maximum response of a compound when it binds with a 1:1 stochiometry to the protein; Rmax=(MW analyte/MW ligand)×immobilized ligand level on the chip (RU) x stoichiometry (1:1). Kinetic experiments were carried out where recombinant MYC bHLHZip was immobilized on the chip and different concentrations of Example 1 were injected as above. […] Example 2-6 were analyzed for their MYC binding properties by equilibrium binding experiments as described for example 1.
# [1] = biological target: T2, MYC:MAX (MYC-GLuc-C + MAX-GLuc-N) in HEK293 cells (Homo sapiens, UniProt P01106); test: Assay 3C GLuc complementation assay; type: cell-based; conditions: HEK293
# T2 construct: expressed in transfected cells; host or cells: HEK293 (also COS-7)
# Method: FIG. 4: A) Endogenous MYC:MAX (upper panel) and FRA1:JUN (lower panel) interactions as visualized as fluorescent red dots by isPLA. Nuclei were counterstained with DAPI (blue). Cells were treated with 10 μM of indicated compounds for 16 hours and subjected to isPLA using pairs of MYC and MAX and of FRA1 and JUN antibodies, respectively. As negative control, primary antibody pairs but only one oligo-conjugated secondary antibody was used. B) Quantification of MYC:MAX and C) FRA1:JUN isPLA, representing an average number of nuclear dots per cell from three microscopic fields normalized to corresponding values for DMSO-treated cells. […] 1st-4th lanes from top; coimmunoprecipitated MAX, immunoprecipitated MYC, total levels of MAX and ACTIN, respectively, as determined by western blot analysis. E) MYC:MAX GLuc assay in cells. […] 24 hours later cells were treated with […] of Example 1, Example 2 and control compound for 16 hours and thereafter analyzed in a dual luciferase assay. The ratio of Gaussia/Firefly luciferase luminescence were calculated and normalized to DMSO-treated cells.
# The protein fragment complementation assay using the Gaussia luciferase (GLuc) has been described (Remy, I. & Michnick, S. W. A highly sensitive protein-protein interaction assay based on Gaussia luciferase. Nat Methods 3, 977-979, doi:10.1038/nmeth979 (2006)). […] 24 hours later cells were treated with compound or DMSO. After another 17 hours the cells were harvested and lyzed in passive lysis buffer (Promega) supplemented with complete protease inhibitor (Roche). After 60 min incubation at room temperature 20 μM D-luciferin was added (substrate of Firefly luciferase) and luminescence was measured in a Lumat LB9501 (Berthold) or OmegaFluostar (BMG Labtech) luminometer. Directly after, the Gaussia luciferase substrate Coelenterazine (Promega) was added to a final concentration of 20 μM and the luciferase activity was measured. The ratio between Gaussia and Firefly luciferase values were calculated and normalized to DMSO-treated control cells.
# [2] = test system: MYCN-amplified neuroblastoma cells (SK-N-DZ, Kelly, IMR-32); test: Assay 5A neuroblastoma cell growth (WST-1), MYCN-amplified; type: cell-based; conditions: Homo sapiens
# Method: (§1) FIG. 6: A-B) Neuroblastoma cell lines with (SK-N-DZ, Kelly and IMR-32) or without (SK-N-F1, SK-N-RA and SK-N-AS) MYCN-amplification were exposed to different concentrations of Example 1, Example 2 and control compound, respectively, for 48 hours. Cell growth and viability was estimated by measuring metabolic activity. C) Growth of TGR-1 (wt), HO15.19 (MYC knockout) and HOmyc3 (MYC reconstituted HO15.19) Rat1 fibroblasts, as measured by the WST-1 assay after treatment with Example 1. Data are shown as mean±standard deviation of 3-5 biological experiments, each with 3 technical repeats.
# (§2) Assay 5A: Neuroblastoma Cell Growth
# (§3) Neuroblastoma cell lines with (SK-N-DZ, Kelly and IMR-32) or without (SK-N-F1, SK-N-RA and SK-N-AS) MYCN-amplification were exposed to different concentrations of example compounds for 48 hours. Cell growth and viability was estimated by measuring metabolic activity by incubating cells in triplicates with WST-1 (Roche) in medium at 37° C. and 5% CO2 for 2 hours after which absorbance was measured with an Omega Fluostar (BMG Labtech) in a 96 well plate format.
# [3] = test system: non-MYCN-amplified neuroblastoma cells (SK-N-F1, SK-N-RA, SK-N-AS); test: Assay 5A neuroblastoma cell growth (WST-1), non-MYCN-amplified; type: cell-based; conditions: Homo sapiens, SK-N-AS
# Method: as §1, §2, §3
# [4] = test system: Tgr and H0Myc3 Rat1 fibroblast cells; test: Assay 5B Tgr cell growth (WST-1), MYC expressing; type: cell-based, rat; conditions: Tgr/H0Myc3 vs H015.19
# Method: as §1
# Assay 5B: Tgr Cell Growth
# Tgr cells were treated at 37° C. and 5% CO2 at 48 hours with Example and Example 2. H015.19 is a MYC null rat cell line derived from Tgr1 (parental cells), while H0Myc3 cells were generated from the MYC null cells by reconstitution of a MYC gene(Mateyak, M. K., Obaya, A. J., Adachi, S. & Sedivy, J. M. Phenotypes of c-Myc-deficient rat fibroblasts isolated by targeted homologous recombination. Cell Growth Differ 8, 1039-1048 (1997)).
# T1 sequence (P01106 368-449 limits assumed): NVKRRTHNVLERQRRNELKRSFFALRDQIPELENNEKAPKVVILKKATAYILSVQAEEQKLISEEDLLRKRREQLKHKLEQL
# T2 sequence (P01106 whole entry): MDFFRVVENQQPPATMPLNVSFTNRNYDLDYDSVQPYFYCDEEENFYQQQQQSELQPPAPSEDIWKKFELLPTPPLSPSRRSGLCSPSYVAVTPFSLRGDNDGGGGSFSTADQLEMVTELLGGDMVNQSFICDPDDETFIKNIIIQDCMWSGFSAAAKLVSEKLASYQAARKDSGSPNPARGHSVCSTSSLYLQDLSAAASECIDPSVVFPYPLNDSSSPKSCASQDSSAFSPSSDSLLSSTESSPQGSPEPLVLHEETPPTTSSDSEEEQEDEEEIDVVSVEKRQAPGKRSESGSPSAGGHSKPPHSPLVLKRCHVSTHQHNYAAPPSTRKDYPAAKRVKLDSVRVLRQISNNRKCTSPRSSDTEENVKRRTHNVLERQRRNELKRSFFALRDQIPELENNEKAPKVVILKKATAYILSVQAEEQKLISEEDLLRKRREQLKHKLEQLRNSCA
Binding relative to Rmax (MYCbHLHZip) [Response Units],inhibition at 10 µM [1] [%],"GI50 ([2]; first run, 48 hours) [µM]",GI50 ([2]; second run) [µM],"GI50 ([3]; 48 h, first run) [µM]",GI50 ([3]; second run) [µM],Structure (SMILES),discrimination between cells dependent on MYC status [4]
1.2,65,4,2.5,12.5,10,"CCOc1ccc2nc3cc(/N=N/c4cc(C)c(O)cc4C)ccc3c(N)c2c1 [Example 2, 4-((9-amino-7-ethoxyacridin-3-yl)diazenyl)-3,6-dimethylphenol]",discriminated between cells dependent on MYC status
1.5,–,–,2,–,> 25,"CCOc1ccc2nc3cc(/N=N/c4c(C)cc(O)cc4C)ccc3c(N)c2c1 [Example 3, 4-((9-amino-7-ethoxyacridin-3-yl)diazenyl)-3,5-dimethylphenol hydrate]",–
0.8,–,–,1,–,> 25,"CCOc1ccc2nc3cc(/N=N/c4cc(C)c(O)c(C)c4)ccc3c(N)c2c1 [Example 6, 4-((9-amino-7-ethoxyacridin-3-yl)diazenyl)-2,6-dimethylphenol]",–
–,–,–,4,–,10,"CCOc1ccc2nc3cc(/N=N/c4ccc(O)c(CNCCN(C)C)c4)ccc3c(N)c2c1 [Example 8, 4-[(E)-(9-amino-7-ethoxy-acridin-3-yl)azo]-2-[[2-(dimethylamino)ethylamino]methyl]phenol hydrochloride]",–
–,–,–,6,–,11,"CCOc1ccc2nc3cc(/N=N/c4ccc(O)c(CN(C)CCN(C)C)c4)ccc3c(N)c2c1 [Example 9, 4-[(E)-(9-amino-7-ethoxy-acridin-3-yl)azo]-2-[[2-(dimethylamino)ethyl-methyl-amino]methyl]phenol]",–
–,–,–,15,–,–,"CCOc1ccc2nc3cc(/N=N/c4ccc(O)c(CO)c4)ccc3c(N)c2c1 [Example 10, 4-[(E)-2-(9-amino-7-ethoxyacridin-3-yl)diazen-1-yl]-2-(hydroxymethyl)phenol]",–
–,–,–,25,–,–,"CCOc1ccc2nc3cc(/N=N/c4ccc(O)c(CN(C)C)c4)ccc3c(N)c2c1 [Example 12, 4-[(E)-2-(9-amino-7-ethoxyacridin-3-yl)diazen-1-yl]-2-((dimethylamino)methyl)phenol]",–
